Broadly, the IC50 is the concentration needed to halve the response being measured.

Our source for the IC50 values is patent EP1242382B1, “TRICYCLIC PROTEIN KINASE INHIBITORS” (Wyeth, priority 1999, dated 2001).

The target of one test is T1, Raf-1 (c-Raf) (Homo sapiens, UniProt P04049).
T1 construct: Sf9 insect cell lysate containing full length 6his-tagged recombinant human c-Raf; host or cells: c-Raf: Sf9 insect cell lysate; MEK1 and MAPK: E. coli
In words: Raf1 kinase cascade assay procedure. The test is classed as biochemical. As to the method:
(Specific Activity: ~200U/ml). Human Non-active Mek-1-GST and human GST-MAP kinase (recombinant proteins produced in E. coli).
• 1. Assay Dilution Buffer (ADB): 20mM MOPS, pH 7.2, 25mM β-glycerol phosphate, 5mM EGTA, 1mM sodium orthovanadate, 1mM dithiothreitol. • 2. Magnesium/ATP Cocktail: 500µM cold ATP and 75 mM magnesium chloride in ADB. • 4. Active Kinase: Human Active c-Raf: Use at 0.4U per assay point • 5. Non-active GST-MEK1: Use at 0.1µg per assay point. • 6. Non-active GST-p42 MAP Kinase: Use at 1.0 µg per assay point
• 1. TBST - Tris (50 mM, pH 7.5), NaCl (150 mM), Tween-20 (0.05 %) • 2. Superblock (Pierce) • 3. Anti-GST Ab (Pharmacia) • 4. Anti-Phospho MAPK (Sigma) • 5. Anti-Mouse Ab / Europium conjugate (Wallac)
First Stage: c-Raf Dependent Activation of GST-MEK and GST-MAPK • 1. Add […] of ADB per assay (i.e. per well of a 96 well plate) • 2. Add 10 ml of 0.5 mM cold ATP and 75 mM magnesium chloride in ADB. • 3. Add 2 ml of c-Raf (0.4U/assay), in conjunction with 1.6ml non-active MEK1 ([…]). • 4. Add 4 ml of non-active GST-p42 MAP Kinase (1.0 mg/assay). • 5. Incubate for 60 minutes at 30°C in a shaking incubator. • 6. Transfer this mixture to an anti-GST Ab coated 96 well plate (Nunc Immunosorb plates coated o/n with a-GST, then blocked with Pierce Superblock). • 7. Incubate for 60 minutes at 30°C in a shaking incubator Wash 3X with TBST, add Anti-Phospho MAPK (Sigma) (1:3000) • 6. Incubate for 60 minutes at 30°C in a shaking incubator • 7. Wash 3X with TBST, add Anti-Mouse Ab / Europium conjugate (Wallac) (1:500) • 8. Incubate for 60 minutes at 30°C in a shaking incubator • 9. Wash 3X with TBST, Read plates in Wallac Victor model Plate Reader. • 10. Collect data analyze in Excel for single point and IC50 determinations.
Typically Raf-1 assay is run at compound concentrations from 10 µM to 1 nM in half log dilutions. (% inhibition is determined for each compound concentration).

For test [1], the system named is Human adenocarcinoma cell line LoVo. In words: Cell based screen for inhibitors of Raf kinase, quantitative assay. To be noted: 96 h, four days incubation. As to the method:
(§1) • Cell Lines: Human adenocarcinoma cell line LoVo which is known to be growth inhibited by low nM concentrations of a reference standard inhibitor of Ras and human adenocarcinoma cell line CaCo-2, which is known to be growth resistant to the same reference compound. • Cell Media : RPMI 1640 with 10% Fetal Bovine Serum supplemented with L-glutamine and Pennicilin/Streptomycin. • Compounds: Supplied usually as a 10 mM stock in 100% DMSO. • Normal Saline: 150 mM NaCl • Trichloroacetic Acid (TCA): 50% (w/v) in water • Sulforhodamine B (SRB): 0.4% (w/v) in 1% Acetic Acid • Tris Base: 10 mM in water
(§2) Cells are plated at 2000 cells per well for cell line LoVo and 1500 cells for cell line CaCo-2 in 96 well plates. Cells are plated in media (200 µl) and allowed to adhere overnight at 37°C. At 24 hours post plating, compounds are added directly at a volume of 0.5 µl. For the qualitative screen (compounds screened at 25 µM) compound is added directly to cells. For the quantitative screen, compound is first diluted in DMSO to generate concentrations of compound or reference standard of: 1, 5, 10 and 25 µM. It is advisable to make the dilutions in an identical 96 well plate so that compounds can be added using a multichannel micropipettor set at 0.5 µl. The cells are then incubated for four days after which the media is removed using a 12 well manifold by first tipping the plate forward at a 45 degree angle and then inserting the manifold in an upright orientation to prevent the tips of the manifold from disturbing cells at the bottom of the plate. 200 µl of normal saline is then added to each well using an 8 well multichannel pipettor, followed by the careful addition of 50 µl of 50% TCA. The plates are then incubated for 2 hours at 4°C, after which the supernatant is removed using the same technique as above and the plated washed twice with 200 µl water. The plates are then air dried and 50 µl of SRB stock solution is carefully added so that the entire bottom of each well is covered. This again can be used using an 8 well multichannel pipettor. The SRB is incubated with fixed cells for 15 minutes at room temperature after which the SRB is removed with the manifold as described above and the plates washed twice with 350 µl of 1% acetic acid per well each time. The plates are then air dried after which the bound SRB is released from protein by the addition of 200 µl of Tris base. Resolubilizing the SRB is aided by placing the plates on a rotator for 15-30 minutes. The absorbance of each well is determined at 550 or 562 nm using a microtiter plate reader.
(§3) Each compound or dilution thereof is performed in triplicate. Outliers are identified by visual inspection of the data. Each plate should have a "0" control (vehicle only).
(§4) Quantitative Assay: A standard curve is constructed by plotting the concentration of compound against the average absorbance calculated at that concentration. […] Multiple entries for a given compound indicate that it is tested multiple times.

Test [2] relates to human adenocarcinoma cell line CaCo-2. Described as above. To be noted: Caco-2, 96 h, four days incubation. As to the method: as §1, §2, §3, §4
The target in test [3] is T2, EGF-R Kinase (recombinant enzyme) (Homo sapiens, UniProt P00533).
T2 construct: EGFR cDNA encoding amino acids 645 - 1186 preceded by Met-Ala-(His)6; made in house; host or cells: Sf9 insect cells, recombinant baculovirus vHcEGFR52
T2 sequence (P00533 669-1210): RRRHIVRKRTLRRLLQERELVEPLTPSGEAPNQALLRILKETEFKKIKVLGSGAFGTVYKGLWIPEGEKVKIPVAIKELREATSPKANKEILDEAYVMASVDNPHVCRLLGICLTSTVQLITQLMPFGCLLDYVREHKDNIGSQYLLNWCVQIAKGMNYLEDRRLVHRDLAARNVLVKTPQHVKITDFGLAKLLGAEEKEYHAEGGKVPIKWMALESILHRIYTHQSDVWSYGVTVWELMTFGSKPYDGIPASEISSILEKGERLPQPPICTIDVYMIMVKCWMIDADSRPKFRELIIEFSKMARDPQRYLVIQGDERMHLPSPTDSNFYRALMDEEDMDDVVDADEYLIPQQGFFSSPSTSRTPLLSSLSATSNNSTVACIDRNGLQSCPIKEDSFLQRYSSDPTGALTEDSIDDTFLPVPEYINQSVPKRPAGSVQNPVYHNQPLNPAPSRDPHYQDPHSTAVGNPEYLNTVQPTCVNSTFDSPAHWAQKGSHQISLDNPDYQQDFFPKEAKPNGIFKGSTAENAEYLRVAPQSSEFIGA
In words: Inhibition of Epidermal Growth Factor Receptor Kinase (EGF-R) using recombinant enzyme. The test is classed as biochemical. As to conditions: RR-SRC peptide substrate, (a) = average of two tests. As to the method:
Representative test compounds are evaluated in a standard pharmacological test procedure to measure their ability to inhibit the phosphorylation of the tyrosine residue of a peptide substrate catalyzed by the enzyme epidermal growth factor receptor kinase. […] The enzyme used in this assay is the His-tagged cytoplasmic domain of EGFR. […] Sf9 cells in 100 mm plates are infected at a multiplicity of infection of 10 pfu/cell and cells are harvested 48 h post infection. A cytoplasmic extract is prepared using 1% Triton X-100 and applied to Ni-NTA column. After washing the column with 20 mM imidazole, HcEGFR is eluted with 250 mM imidazole (in 50 mM Na2HPO4, pH 8.0, 300 mM NaCl). Fractions collected are dialyzed against 10 mM HEPES, pH 7.0, 50 mM NaCl, 10% glycerol, 1ug/mL antipain and leupeptin and 0.1 mM Pefabloc SC. The protein is frozen in dry ice/methanol and stored -70°C.
Test compounds are made into 10 mg/mL stock solutions in 100% dimethylsulfoxide (DMSO). Prior to experiment, stock solutions are diluted to 500 uM with 100% DMSO and then serially diluted to the desired concentration with HEPES buffer (30 mM HEPES pH 7.4).
For the enzyme reaction, 10 uL of each inhibitor (at various concentrations) are added to each well of a 96-well plate. To this is added 3 uL of enzyme (1:10 dilution in 10mM HEPES, pH 7.4 for final conc. of 1:120). This is allowed to sit for 10 min on ice and is followed by the addition of 5 ul peptide (80 uM final conc.), 10ul of 4X Buffer containing 50 mM HEPES (pH 7.4), 200 mM Na3VO4, 40mM MnCl2, 80 uM ATP, 0.25 uL ^33P-ATP (>2500 Ci/mmol; Amersham) and 12 uL H2O. The reaction is allowed to run for 90 min at room temperature and is followed by spotting the entire volume onto precut P81 filter papers. The filter discs are washed 2X with 0.5% phosphoric acid and radioactivity is measured using a liquid scintillation counter.
The % inhibition of the test compound is determined for at least three different concentrations and the IC50 value is evaluated from the dose response curve. […] CPM(control) is in units of counts per minute and is a number expressing the amount of radiolabled ATP (γ-^33P) incorporated into the RR-SRC peptide substrate by the enzyme after 90 minutes at room temperature in the absence of test compound as measured by liquid scintillation counting. The CPM values are corrected for the background counts produced by ATP in the absence of the enzymatic reaction.

Molecules are shown by their SMILES.

T1 sequence (P04049 whole entry): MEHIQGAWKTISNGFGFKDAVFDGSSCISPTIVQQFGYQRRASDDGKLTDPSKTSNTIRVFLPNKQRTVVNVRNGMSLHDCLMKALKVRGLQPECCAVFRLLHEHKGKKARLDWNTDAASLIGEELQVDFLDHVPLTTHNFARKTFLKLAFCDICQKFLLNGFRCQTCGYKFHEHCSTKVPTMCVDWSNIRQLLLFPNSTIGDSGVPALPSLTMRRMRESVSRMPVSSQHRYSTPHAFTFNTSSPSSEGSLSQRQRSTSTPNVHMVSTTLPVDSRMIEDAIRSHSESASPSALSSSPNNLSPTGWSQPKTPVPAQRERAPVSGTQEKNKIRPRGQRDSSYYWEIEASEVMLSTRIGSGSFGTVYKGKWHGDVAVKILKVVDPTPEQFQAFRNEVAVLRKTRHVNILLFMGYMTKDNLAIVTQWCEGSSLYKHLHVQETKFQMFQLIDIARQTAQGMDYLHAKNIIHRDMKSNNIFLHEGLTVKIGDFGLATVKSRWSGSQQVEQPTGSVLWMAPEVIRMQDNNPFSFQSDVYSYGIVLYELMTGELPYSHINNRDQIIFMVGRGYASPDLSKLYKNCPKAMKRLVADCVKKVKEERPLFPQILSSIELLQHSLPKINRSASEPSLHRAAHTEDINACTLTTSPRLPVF

Take `COc1cc2cc3ncc(C#N)c(Nc4ccc(Oc5ccccc5)c(Cl)c4)c3cc2cc1OCCN1CCOCC1` [Example 214, 4-(3-Chloro-4-phenoxyphenylamino)-8-methoxy-7-(2-morpholin-4-yl-ethoxy)benzo[g]quinoline-3-carbonitrile]: the IC50 is 310 nM against Raf-1 (c-Raf), 250 nM in test [1] and 8000 nM in test [2].

With `COc1cc2cc3c(Nc4ccc(Sc5nccn5C)c(Cl)c4)c(C#N)cnc3nc2cc1OCCN1CCOCC1` [Example 176, 4-{3-Chloro-4-[(1-methyl-1H-imidazol-2-yl)sulfanyl]anilino}-7-methoxy-8-[2-(4-morpholinyl)ethoxy]benzo[b][1,8]naphthyridine-3-carbonitrile], the IC50 stood at 3000 nM on Raf-1 (c-Raf), 3500 nM in test [1] and 10000 nM in test [2].

As for `COc1cc2cc3ncc(C#N)c(Nc4ccc(OCc5ccccc5)c(Cl)c4)c3cc2cc1OCCN1CCOCC1` [Example 217, 4-(4-Benzyloxy-3-chlorophenylamino)-8-methoxy-7-(2-morpholin-4-yl-ethoxy)benzo[g]quinoline-3-carbonitrile], the IC50 was above 10000 nM on Raf-1 (c-Raf), 480 nM in test [1] and 4800 nM in test [2].

In the case of `COc1cc2cc3c(Nc4ccc(F)c(Cl)c4)c(C#N)cnc3cc2cc1OCCN1CCOCC1` [Example 205, 4-(3-Chloro-4-fluoroanilino)-7-methoxy-8-[2-(4-morpholinyl)ethoxy]benzo[g]quinoline-3-carbonitrile], the IC50 in test [3] turned out to be 250 nM.

As to `COc1cc(Nc2c(C#N)cnc3cc4cc(OCCN5CCOCC5)c(OC)cc4cc23)c(C)cc1Cl` [Example 124, 4-(4-chloro-5-methoxy-2-methylanilino)-7-methoxy-8-[2-(4-morpholinyl)ethoxy]benzo[g]quinoline-3-carbonitrile], the results for the IC50 (in test [3]; against Raf-1 (c-Raf)) were 3000 nM and 130 nM, respectively.

With `COc1cc2cc3c(Nc4ccc(Sc5nccn5C)c(Cl)c4)c(C#N)cnc3nc2cc1OCCCl` [Example 174, 8-(2-Chloroethoxy)-4-{3-chloro-4-[(1-methyl-1H-imidazol-2-yl)sulfanyl]anilino}-7-methoxybenzo[b][1,8]naphthyridine-3-carbonitrile], the IC50 against Raf-1 (c-Raf) is above 10000 nM; in test [1], 440 nM; in test [2], 4000 nM.

As for `COc1cc2cc3c(Nc4ccc(Oc5ccccc5)c(Cl)c4)c(C#N)cnc3cc2cc1OCCN1CCOCC1` [Example 213, 4-(3-Chloro-4-phenoxyphenylamino)-7-methoxy-8-(2-morpholin-4-yl-ethoxy)benzo[g]quinoline-3-carbonitrile], the figures for the IC50 (on Raf-1 (c-Raf); in test [1]; in test [2]) were 27 nM, 300 nM and 1400 nM, respectively.

`N#Cc1cnc2c(c1Nc1ccc(Oc3ccccc3)cc1)C=C1N=CN=C1C2` [Example 44, 8-(4-Phenoxyanilino)imidazo[4,5-g]quinoline-7-carbonitrile]: the IC50 on Raf-1 (c-Raf) came to 9 nM; in test [1], 850 nM; in test [2] it was 9200 nM.

As to `COc1cc(Nc2c(C#N)cnc3cc4cc(OCCN5CCOCC5)c(OC)cc4cc23)c(Cl)cc1C` [Example 216, 4-(2-Chloro-5-methoxy-4-methylphenylamino)-7-methoxy-8-(2-morpholin-4-yl-ethoxy)benzo[g]quinoline-3-carbonitrile], the IC50 in test [3] is 290 nM.
